Tests used:
[1] = target: T1, MLLT3 (Homo sapiens, UniProt P42568); assay: NanoBRET assay, full-length MLLT3-NanoLuc / histone H3.3-HaloTag in HEK293 cells; type: cell-based; conditions: 24 h
T1 construct: in full length MLLT3 N-terminal NanoLuc, Histone; host or cells: HEK293
T1 sequence (P42568 1-568): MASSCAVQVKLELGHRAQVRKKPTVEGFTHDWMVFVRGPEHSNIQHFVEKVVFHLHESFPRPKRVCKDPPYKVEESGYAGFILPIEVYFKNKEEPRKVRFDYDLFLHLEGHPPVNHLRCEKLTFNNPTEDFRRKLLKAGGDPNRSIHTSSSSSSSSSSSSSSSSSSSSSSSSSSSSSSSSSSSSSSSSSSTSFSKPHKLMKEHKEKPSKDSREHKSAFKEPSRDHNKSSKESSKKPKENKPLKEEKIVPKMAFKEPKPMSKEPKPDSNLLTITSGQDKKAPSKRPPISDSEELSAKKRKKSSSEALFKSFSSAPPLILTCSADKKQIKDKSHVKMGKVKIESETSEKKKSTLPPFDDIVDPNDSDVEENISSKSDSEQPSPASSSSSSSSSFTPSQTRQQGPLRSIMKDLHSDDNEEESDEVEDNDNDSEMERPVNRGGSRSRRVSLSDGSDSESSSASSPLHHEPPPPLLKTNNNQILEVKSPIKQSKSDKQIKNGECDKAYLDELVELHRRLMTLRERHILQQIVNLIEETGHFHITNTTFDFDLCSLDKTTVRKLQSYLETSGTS
Experimental: II.V NanoLuciferase Bioluminescent Resonance Energy Transfer (NanoBRET) Assay[2]
HEK293 cells ([…]) were plated in each well of a 6-well plate after 6 h cells were co-transfected with Histone H3.3-HaloTag (NM_002107) and a NanoLuciferase fusion of MLLT1 or MLLT3 (WT sequences from Promega HaloTag® human ORF in pFN21A) at a 1:500 and 1:10 (NanoLuc® to HaloTag®) ratio respectively with FuGENE HD transfection regent. Sixteen hours post-transfection, cells were collected and exchanged into media containing phenol red-free DMEM and 4% FBS in the absence (control sample) or the presence (experimental sample) of 100 nM NanoBRET 618 fluorescent ligand (Promega).
Cell density was adjusted to 2 x 10^5 cells/mL and then seeded 100 µL/well in a white 96-well plate (Corning Costar #3917). Compounds were then added directly to media (in the presence of SAHA 2.5 µM) at final concentrations 0.01-30 μM or an equivalent amount of DMSO as a vehicle control, and the plates were incubated for 24 h at 37 °C in the presence […]
NanoBRET Nano-Glo substrate (Promega) was added to both control and experimental samples at a final concentration of 10 µM. Readings were performed within 5 minutes using a ClarioSTAR (BMG labtech) equipped with LP 480 and 610 nm filters. A corrected BRET ratio was calculated and is defined as the ratio of the emission at 610 nm/[…] for experimental samples minus the emission at 6 10 nm/640 nm for control samples (not incubated with NanoBRET fluorescent ligand). BRET ratios are expressed as milliBRET units (mBU), where 1 mBU corresponds to the corrected BRET ratio multiplied by 1000.
3.3 C-terminal HaloTag in HEK293 cells. Treatment with SAHA (2.5 µM) alone increases MLLT3- […]
dependent manner. Mean±SD of BRET ratio (mBU), n=4 technical replicates.
(also on this page, place not known: 5) -well H3.3 -HaloTag pFN21A ) ( NanoLuc® H aloTag®) post -transfection, red -free Nano -Glo 10 5 6 10 6 10 l igand). cells . […]

[2] = Metabolic stability in primary human hepatocytes; type: in vitro ADME
Experimental: page 98: II.IX in vitro Metabolism Studies Metabolic stability studies were carried out exposing nominated compounds to samples of primary human hepatocytes . Compounds were analysed by LC -MS for loss of parent compound at 0, 10, 30, 60 and 120-minute time points and analysis of metabolites formed . […] 1000000 500000 0 0 min 10 min 30 min 60 min 120 min Supplementary Figure 8.

[3] = system: 48 bromodomains; assay: Thermal shift assay, bromodomain panel; type: binding, human; conditions: 50 μM compound concentrations
Experimental: II.VII Thermal Shift Assay[6]
Thermal melting experiments were carried out using an Mx3005p Real Time PCR machine (Stratagene). Proteins were buffered in 10 mM HEPES pH 7.5, 500 mM NaCl and assayed in a 96-well plate at a final concentration of 2 μM in 20 μL volume. Compounds were added at a final concentration of 50 μM. SYPRO Orange (Molecular Probes) was added as a fluorescence probe at a dilution of 1:1000. Excitation and emission filters for the SYPRO-Orange dye were set to 465 nm and 590 nm, respectively. The temperature was raised with a step of 3 °C per minute from 25 °C to 96 °C and fluorescence readings were taken at each interval. The unfolding curves were fitted using the Boltzmann equation to determine the middle point of the transition.

Compound: C[C@H]1CCCN1Cc1nc2cc(NC(=O)c3ccc4c(cnn4C)c3)ccc2[nH]1 [Compound 92]
- IC50 ([1]; in the presence of 2.5 μM SAHA): 0.4 ± 0.08 µM
- MLLT3-Histone 3.3 interaction (mBU) ([1]; representative assay): can reduce this interaction
- parent remaining after 60 min ([2]; 60 min): 48%
- half-life ([2]; human, read-out: metabolic stability t1/2): 53 min

Compound: COC(=O)c1ccc(C(=O)Nc2ccc3[nH]c(CN4CCCCC4)nc3c2)cc1 [Compound 1]
- activity against 48 bromodomains in thermal shift assay [3]: no activity

— article PMC6348381, “Discovery of an MLLT1/3 YEATS Domain Chemical Probe” (Angewandte Chemie (International Ed. in English), 2018)
